Data from the CombiSolv-Exp solvation set (Vermeire and Green 2021).

Assay: solvent given as SMILES

CCCC(C)C
Settings | solvation free energy, 298 K [kcal/mol]
in Brc1ccccc1 | -3.41
in C1CCCCC1 | -3.86
in C1CCOC1 | -3.7
in C1COCCO1 | -3.03
in C=CCCCC | -3.84
in C=CCCCCCC | -3.73
in C=CCCCCCCCC | -3.64
in C=CCCCCCCCCCCCCCC | -3.33
in CC1COC(=O)O1 | -1.98
in CC#N | -2.5
in CC(=O)N(C)C | -2.65
in CC(=O)O | -2.72
in CC(=O)c1ccccc1 | -2.84
in CC(C)=O | -3.08
in CC(C)CC(C)(C)C | -3.72
in CC(C)CCCC(C)CCCC(C)CCCCC(C)CCCC(C)CCCC(C)C | -3.28
in CC(C)CCO | -3.23
in CC(C)O | -3.02
in CC(C)OC(C)C | -3.78
in CCBr | -3.88
in CCC#N | -2.84
in CCC(C)=O | -3.27
in CCCC#N | -3.05
in CCCC(=O)OCC | -3.46
in CCCC(C)=O | -3.34
in CCCCC | -3.93
in CCCCCC | -3.87
in CCCCCC(C)=O | -3.35
in CCCCCCC | -3.78
in CCCCCCCC | -3.71
in CCCCCCCCC | -3.67
in CCCCCCCCCC | -3.63
in CCCCCCCCCCCC | -3.52
in CCCCCCCCCCCCCCCC | -3.45
in CCCCCCCCCOC(=O)c1ccccc1C(=O)OCCCCCCCCC | -3.02
in CCCCCCCCO | -3.18
in CCCCCCOC(C)=O | -3.42
in CCCCCO | -3.3
in CCCCO | -3.12
in CCCCOC(C)=O | -3.4
in CCCCOCCCC | -3.7
in CCCO | -3.01
in CCN(CC)CC | -3.81
in CCO | -2.97
in CCOC(C)=O | -3.29
in CCOCC | -3.78
in CCOCCOCCOCC | -3.21
in CCOc1ccccc1 | -3.26
in CN1CCCC1=O | -2.55
in CN1CCCCC1=O | -2.58
in CN(C)C=O | -2.52
in CN(C)P(=O)(N(C)C)N(C)C | -2.88
in CNC=O | -2.24
in CO | -2.68
in COC(C)(C)C | -3.77
in COC(C)=O | -3.14
in COCCO | -2.53
in COc1ccccc1 | -3.2
in CS(C)=O | -1.78
in Cc1ccc(C)cc1 | -3.64
in Cc1ccccc1 | -3.65
in Cc1ccccn1 | -3.28
in ClC(Cl)(Cl)Cl | -3.85
in ClC(Cl)Cl | -3.72
in ClCCCl | -3.24
in ClCCl | -3.54
in Clc1ccccc1 | -3.62
in FC(F)(F)C(F)(F)C(F)(F)C(F)(F)C(F)(F)C(F)(F)C(F)(F)C(F)(F)F | -2.43
in FC(F)(F)C(F)(F)C(F)(F)C(F)(F)C(F)(F)C(F)(F)F | -2.53
in Fc1ccccc1 | -3.63
in ICI | -1.94
in N#Cc1ccccc1 | -2.91
in Nc1ccccc1 | -2.28
in O | 2.51
in O=C1CCCCC1 | -3.16
in O=C1CCCO1 | -2.1
in OCc1ccccc1 | -2.47
in S=C=S | -3.82
in c1ccccc1 | -3.61
in c1ccncc1 | -3.06

CCCCCN(C)N=O
Settings | solvation free energy, 298 K [kcal/mol]
in O | -5.05

COc1ccccc1
Settings | solvation free energy, 298 K [kcal/mol]
in CCCCCCC | -5.35
in CCCCCCCCCCCCCCCC | -5.21
in CCCCCCCCO | -5.46
in O | -2.53
in [2H]O[2H] | -2.62

CCCCCCCCCCCCCCC
Settings | solvation free energy, 298 K [kcal/mol]
in O | 4.29

C#CC
Settings | solvation free energy, 298 K [kcal/mol]
in C1CCC2CCCCC2C1 | -1.49
in C1COCCO1 | -2.46
in CC1COC(=O)O1 | -2.04
in CC(C)=O | -2.48
in CC(C)CC(C)(C)C | -1.66
in CCCCCCCCCCCCCCCC | -1.4
in CN1CCCC1=O | -2.47
in CN(C)C=O | -2.49
in CN(C)P(=O)(N(C)C)N(C)C | -2.6
in COC(C)=O | -2.51
in COCCOCCOCCOC | -2.03
in CS(C)=O | -2.14
in Nc1ccccc1 | -2.01
in O | -0.48
in OCCCOCCCO | -1.53
in OCCO | -1.22
in OCc1ccccc1 | -1.77

O=[N+]([O-])c1ccc(CCl)cc1
Settings | solvation free energy, 298 K [kcal/mol]
in Brc1ccccc1 | -5.65
in CC(C)=O | -10
in CC(C)CCO | -8.34
in CC(C)CO | -8.25
in CCC(C)O | -8.28
in CCCC(C)O | -8.24
in CCCCCO | -8.4
in CCCCO | -8.49
in CCCCOC(C)=O | -9.67
in CCCO | -8.54
in CCOCC | -9.26
in O | -5.14
